Source: ChEMBL document CHEMBL3639270, “Therapeutic agents” (2013)

Target: E3 ubiquitin-protein ligase Mdm2 (Homo sapiens, UniProt Q00987)
Assay: ELISA Assay: Streptavidin-coated 96-well plates are used to immobilise a biotin-tagged IP3 p53-derived peptide ([…]). This is a peptide analogue derived from the p53 binding site for MDM2 ([…]). […] Aliquots of MDM2 generated by in vitro translation are pre-incubated for 20 minutes at room temperature (i.e. 20-25C.) with test compounds and controls, before transfer into the IP3-coated 96-well plates.

Sequence of E3 ubiquitin-protein ligase Mdm2 (Q00987 whole entry): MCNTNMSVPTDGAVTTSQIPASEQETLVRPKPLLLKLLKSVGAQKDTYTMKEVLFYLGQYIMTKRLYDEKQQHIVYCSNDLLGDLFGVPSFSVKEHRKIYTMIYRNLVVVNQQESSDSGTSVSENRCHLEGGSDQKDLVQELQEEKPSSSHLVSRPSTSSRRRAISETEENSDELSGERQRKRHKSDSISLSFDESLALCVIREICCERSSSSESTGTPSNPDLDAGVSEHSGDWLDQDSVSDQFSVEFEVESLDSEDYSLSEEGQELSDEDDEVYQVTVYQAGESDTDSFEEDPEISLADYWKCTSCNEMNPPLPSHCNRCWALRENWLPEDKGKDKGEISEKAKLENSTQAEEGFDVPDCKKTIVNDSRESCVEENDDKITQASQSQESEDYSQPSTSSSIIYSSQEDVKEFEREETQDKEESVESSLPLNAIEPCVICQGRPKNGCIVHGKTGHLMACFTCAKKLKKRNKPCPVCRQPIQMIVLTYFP

IC50: 375 nM
Structure (SMILES): O=C1c2ccccc2C(O[C@H]2CCC[C@@H](O)CCC2)(c2ccc(Cl)cc2)N1Cc1ccc([N+](=O)[O-])cc1 (stereo partly specified)
